These results are taken from PMC8308925 (Pharmaceuticals, 2021).

One data set concerns the target T1, UGT1A1 (Homo sapiens, UniProt P22309).
T1 sequence (P22309 26-533): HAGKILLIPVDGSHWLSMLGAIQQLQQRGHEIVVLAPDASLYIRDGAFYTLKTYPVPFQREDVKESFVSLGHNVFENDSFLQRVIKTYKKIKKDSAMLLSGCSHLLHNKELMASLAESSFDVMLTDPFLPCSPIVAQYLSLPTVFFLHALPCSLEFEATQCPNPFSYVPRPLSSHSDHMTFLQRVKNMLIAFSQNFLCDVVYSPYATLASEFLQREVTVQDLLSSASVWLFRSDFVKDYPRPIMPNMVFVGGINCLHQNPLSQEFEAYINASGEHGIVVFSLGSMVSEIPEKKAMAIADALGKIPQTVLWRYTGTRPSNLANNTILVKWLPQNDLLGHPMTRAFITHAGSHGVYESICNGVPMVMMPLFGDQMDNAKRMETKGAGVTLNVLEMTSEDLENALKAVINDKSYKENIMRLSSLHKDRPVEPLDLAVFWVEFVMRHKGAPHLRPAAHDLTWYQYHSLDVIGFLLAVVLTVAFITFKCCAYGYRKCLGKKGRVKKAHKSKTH
The experiment in a line: biochemical.

The target of the next data set is CYP2E1 (Homo sapiens, UniProt P05181). The experiment in a line: biochemical.
The target of the next data set is T2, UGT2B7 (Homo sapiens, UniProt P16662).
T2 sequence (P16662 24-529): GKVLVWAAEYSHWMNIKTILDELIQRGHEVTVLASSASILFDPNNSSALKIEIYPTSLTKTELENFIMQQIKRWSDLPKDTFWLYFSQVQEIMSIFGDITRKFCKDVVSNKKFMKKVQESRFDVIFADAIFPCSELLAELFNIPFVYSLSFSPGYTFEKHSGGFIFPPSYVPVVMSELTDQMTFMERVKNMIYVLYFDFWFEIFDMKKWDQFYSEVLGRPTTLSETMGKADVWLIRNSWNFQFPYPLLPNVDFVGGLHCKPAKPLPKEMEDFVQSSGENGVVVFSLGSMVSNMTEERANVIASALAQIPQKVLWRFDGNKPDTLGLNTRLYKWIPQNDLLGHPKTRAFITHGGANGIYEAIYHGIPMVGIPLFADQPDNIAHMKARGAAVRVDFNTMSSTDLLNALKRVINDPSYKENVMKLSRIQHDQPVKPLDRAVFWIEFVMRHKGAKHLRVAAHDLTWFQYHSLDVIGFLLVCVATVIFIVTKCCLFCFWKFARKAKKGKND
In words: biochemical.

A further data set has as its target T3, UGT1A4 (Homo sapiens, UniProt P22310).
T3 sequence (P22310 29-534): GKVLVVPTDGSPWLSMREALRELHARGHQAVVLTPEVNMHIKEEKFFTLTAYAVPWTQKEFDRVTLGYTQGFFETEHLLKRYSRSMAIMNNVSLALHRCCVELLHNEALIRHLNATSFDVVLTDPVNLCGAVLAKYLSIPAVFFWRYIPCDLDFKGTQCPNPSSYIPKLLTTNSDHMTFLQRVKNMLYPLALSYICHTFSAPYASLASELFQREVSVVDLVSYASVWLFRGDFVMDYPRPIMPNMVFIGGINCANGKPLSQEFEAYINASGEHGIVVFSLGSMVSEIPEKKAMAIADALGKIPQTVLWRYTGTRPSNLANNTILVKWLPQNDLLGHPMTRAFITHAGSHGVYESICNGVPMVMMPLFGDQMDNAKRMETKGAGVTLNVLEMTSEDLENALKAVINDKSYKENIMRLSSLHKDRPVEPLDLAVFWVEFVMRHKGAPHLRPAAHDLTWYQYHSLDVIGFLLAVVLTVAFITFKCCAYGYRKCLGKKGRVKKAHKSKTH
The experiment in a line: biochemical.

The next data set deals with T4, UGT1A9 (Homo sapiens, UniProt O60656).
T4 sequence (O60656 26-530): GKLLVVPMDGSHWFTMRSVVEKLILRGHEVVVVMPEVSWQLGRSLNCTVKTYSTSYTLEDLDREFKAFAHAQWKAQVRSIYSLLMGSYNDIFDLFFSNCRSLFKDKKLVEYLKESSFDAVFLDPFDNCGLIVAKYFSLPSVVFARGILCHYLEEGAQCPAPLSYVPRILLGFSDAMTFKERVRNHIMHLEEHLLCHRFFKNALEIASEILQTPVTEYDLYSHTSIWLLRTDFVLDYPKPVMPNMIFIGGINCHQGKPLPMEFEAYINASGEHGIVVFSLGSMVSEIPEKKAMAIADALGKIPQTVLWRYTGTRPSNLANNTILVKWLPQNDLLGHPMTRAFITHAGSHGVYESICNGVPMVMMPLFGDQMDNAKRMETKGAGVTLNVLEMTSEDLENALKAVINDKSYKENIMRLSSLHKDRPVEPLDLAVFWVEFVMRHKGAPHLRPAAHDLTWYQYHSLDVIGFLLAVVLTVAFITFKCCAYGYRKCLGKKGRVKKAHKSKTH
The experiment in a line: biochemical.

The next data set addresses T5, CYP2C8 (Homo sapiens, UniProt P10632).
T5 sequence (P10632 1-490): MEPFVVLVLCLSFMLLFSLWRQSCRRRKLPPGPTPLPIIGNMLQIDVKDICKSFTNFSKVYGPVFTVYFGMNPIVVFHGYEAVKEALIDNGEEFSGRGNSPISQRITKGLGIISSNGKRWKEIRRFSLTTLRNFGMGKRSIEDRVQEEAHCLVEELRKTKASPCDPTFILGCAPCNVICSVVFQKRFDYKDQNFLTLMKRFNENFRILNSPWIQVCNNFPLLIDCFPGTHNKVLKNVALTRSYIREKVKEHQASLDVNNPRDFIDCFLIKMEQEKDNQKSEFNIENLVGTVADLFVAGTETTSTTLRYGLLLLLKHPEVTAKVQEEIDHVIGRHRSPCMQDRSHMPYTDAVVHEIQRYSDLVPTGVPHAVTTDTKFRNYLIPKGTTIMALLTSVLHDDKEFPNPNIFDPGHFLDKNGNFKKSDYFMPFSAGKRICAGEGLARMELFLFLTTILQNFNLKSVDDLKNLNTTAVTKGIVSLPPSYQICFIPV
Particulars: read-out: Positive control IC50; Rosiglitazone hydroxylation; in-house data, similar to the reference values [1].

Another data set deals with T6, OCT1 (Homo sapiens, UniProt O15245).
T6 sequence (O15245 1-554): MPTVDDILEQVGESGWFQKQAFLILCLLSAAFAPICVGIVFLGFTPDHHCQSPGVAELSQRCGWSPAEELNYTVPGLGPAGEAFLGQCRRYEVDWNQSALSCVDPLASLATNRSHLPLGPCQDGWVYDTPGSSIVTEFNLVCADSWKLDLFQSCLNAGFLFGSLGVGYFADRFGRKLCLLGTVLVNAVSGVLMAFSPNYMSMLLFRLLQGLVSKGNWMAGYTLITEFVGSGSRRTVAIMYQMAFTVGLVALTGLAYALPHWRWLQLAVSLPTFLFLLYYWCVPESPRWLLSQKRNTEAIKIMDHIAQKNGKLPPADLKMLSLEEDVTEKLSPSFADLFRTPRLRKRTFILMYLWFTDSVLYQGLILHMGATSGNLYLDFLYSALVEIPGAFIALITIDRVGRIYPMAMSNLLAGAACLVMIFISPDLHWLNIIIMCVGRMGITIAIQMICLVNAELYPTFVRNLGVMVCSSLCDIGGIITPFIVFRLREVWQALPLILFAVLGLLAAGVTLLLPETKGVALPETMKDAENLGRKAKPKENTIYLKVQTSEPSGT
Particulars: 4 µM probe substrate, HEK 293-OCT1. The procedure: (§1) OCT1-, OCT2-, MATE1-, and MATE2K-overexpressing HEK 293 cells and mock cells. To
(§2) aminohippuric acid for OAT1, 4 µM [14C]Metformin for OCT1, OCT2, MATE1, and
(§3) lein for OATP2B1, 100 µM probenecid for OAT1, 100 µM verapamil for OCT1, 200 µM
(§4) and MATE2K, respectively).
(§5) and –MATE2K and mock cells.

For another data set, the target named is T7, OCT2 (Homo sapiens, UniProt O15244).
T7 sequence (O15244 1-555): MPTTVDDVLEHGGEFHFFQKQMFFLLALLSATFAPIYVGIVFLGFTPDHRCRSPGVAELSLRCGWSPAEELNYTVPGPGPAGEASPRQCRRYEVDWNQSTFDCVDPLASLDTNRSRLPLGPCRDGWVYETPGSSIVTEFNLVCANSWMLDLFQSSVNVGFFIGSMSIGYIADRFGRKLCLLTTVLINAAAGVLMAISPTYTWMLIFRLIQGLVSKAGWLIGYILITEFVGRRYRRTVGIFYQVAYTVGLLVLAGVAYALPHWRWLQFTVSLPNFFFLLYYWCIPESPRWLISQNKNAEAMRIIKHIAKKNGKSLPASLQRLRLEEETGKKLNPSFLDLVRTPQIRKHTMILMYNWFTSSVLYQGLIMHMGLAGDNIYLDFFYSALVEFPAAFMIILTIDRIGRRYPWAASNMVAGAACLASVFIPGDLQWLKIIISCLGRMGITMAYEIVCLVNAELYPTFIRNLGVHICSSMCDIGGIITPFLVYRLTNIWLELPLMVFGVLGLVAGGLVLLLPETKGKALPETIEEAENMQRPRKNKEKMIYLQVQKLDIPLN
Particulars: 4 µM probe substrate, HEK 293-OCT2. The method, then: as §1, §2, §3, §4, §5

The target of the next data set is T8, MATE1 (Homo sapiens, UniProt Q96FL8).
T8 sequence (Q96FL8 1-570): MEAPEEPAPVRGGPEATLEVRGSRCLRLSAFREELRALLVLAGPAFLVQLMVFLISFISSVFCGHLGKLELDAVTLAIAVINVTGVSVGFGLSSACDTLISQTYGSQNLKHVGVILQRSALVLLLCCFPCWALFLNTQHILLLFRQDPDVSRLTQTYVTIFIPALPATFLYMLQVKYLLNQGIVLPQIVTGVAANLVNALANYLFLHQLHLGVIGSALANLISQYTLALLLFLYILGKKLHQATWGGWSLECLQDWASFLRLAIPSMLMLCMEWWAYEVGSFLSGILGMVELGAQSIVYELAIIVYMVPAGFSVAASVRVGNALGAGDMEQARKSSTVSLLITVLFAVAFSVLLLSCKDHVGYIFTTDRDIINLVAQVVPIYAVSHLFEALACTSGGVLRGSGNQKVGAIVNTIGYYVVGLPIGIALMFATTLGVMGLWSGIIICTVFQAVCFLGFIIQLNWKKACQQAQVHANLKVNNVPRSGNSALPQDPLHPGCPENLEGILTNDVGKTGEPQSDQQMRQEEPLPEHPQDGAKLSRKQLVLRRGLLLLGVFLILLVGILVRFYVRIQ
Particulars: 4 µM probe substrate, HEK 293-MATE1. The method, then:
as §1, §2, §3, §4, §5

A further data set addresses MATE2K (Homo sapiens, UniProt Q86VL8). Particulars: 4 µM probe substrate, HEK 293-MATE2K. The procedure:
as §1, §2, §3, §4, §5

In a further data set the target is T9, ASBT (Homo sapiens, UniProt Q12908).
T9 sequence (Q12908 1-348): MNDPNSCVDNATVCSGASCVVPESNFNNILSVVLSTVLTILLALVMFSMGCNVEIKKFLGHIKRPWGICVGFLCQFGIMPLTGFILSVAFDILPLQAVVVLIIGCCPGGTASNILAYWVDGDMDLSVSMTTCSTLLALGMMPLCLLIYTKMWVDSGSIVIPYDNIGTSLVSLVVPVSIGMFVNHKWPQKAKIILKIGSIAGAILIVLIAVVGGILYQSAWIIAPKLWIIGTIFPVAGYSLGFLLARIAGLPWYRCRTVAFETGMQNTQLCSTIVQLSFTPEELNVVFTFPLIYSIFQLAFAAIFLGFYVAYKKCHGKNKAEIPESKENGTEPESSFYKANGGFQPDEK
Particulars: inhibition of ASBT, implemented in DDI model; ref [38]; cited from earlier work.

In another data set the test system is OAT3. Particulars: inhibition of OAT3, implemented in DDI model; ref [41]; cited from earlier work.

Chain of CYP2E1 (P05181 whole entry): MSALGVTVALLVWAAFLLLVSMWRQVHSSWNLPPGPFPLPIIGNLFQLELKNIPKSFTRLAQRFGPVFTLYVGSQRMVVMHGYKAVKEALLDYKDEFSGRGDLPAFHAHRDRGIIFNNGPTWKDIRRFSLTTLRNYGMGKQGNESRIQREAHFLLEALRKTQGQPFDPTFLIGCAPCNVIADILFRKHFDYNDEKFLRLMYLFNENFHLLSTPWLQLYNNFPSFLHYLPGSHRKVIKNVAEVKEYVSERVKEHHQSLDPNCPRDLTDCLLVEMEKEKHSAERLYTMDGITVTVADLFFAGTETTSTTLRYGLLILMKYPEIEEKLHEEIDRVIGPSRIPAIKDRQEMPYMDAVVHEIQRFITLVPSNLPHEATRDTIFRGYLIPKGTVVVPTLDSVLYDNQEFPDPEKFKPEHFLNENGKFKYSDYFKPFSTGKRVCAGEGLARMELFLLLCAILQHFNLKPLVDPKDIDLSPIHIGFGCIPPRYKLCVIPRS
Chain of MATE2K (Q86VL8 1-566 isoform Q86VL8-3): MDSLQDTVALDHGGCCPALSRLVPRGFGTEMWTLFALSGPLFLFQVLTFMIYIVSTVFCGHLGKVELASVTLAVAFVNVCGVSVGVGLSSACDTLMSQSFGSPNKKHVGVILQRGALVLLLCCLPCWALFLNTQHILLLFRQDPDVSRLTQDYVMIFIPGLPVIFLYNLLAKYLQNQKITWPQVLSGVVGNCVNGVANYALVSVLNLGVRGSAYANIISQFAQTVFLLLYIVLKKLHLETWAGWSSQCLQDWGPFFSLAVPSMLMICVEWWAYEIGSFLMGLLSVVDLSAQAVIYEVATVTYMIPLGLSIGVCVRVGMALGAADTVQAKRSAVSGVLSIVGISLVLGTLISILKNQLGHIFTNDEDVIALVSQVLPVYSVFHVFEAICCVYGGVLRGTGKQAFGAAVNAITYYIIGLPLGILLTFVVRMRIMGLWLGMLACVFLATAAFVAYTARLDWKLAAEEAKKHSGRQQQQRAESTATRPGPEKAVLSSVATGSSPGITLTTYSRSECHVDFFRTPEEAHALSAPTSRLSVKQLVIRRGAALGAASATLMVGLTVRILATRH

`COC(=O)N[C@H](C(=O)N[C@@H](Cc1ccccc1)[C@@H](O)CN(Cc1ccc(-c2ccccn2)cc1)NC(=O)[C@@H](NC(=O)OC)C(C)(C)C)C(C)(C)C` [Atazanavir] displayed an IC50 against UGT1A1 of 0.29 µM.

`CCN(CC)C(=S)S` [Diethyldithio-carbamate]: 16.7 µM corresponded to half-maximal inhibition against CYP2E1 (IC50).

Turning to `O=C1Nc2ccc(Cl)cc2[C@@](C#CC2CC2)(C(F)(F)F)O1` [Efavirenz], 27.3 µM corresponded to half-maximal inhibition at UGT2B7 (IC50).

At UGT1A4, `C[C@@H]1CC[C@@]2(OC1)O[C@H]1C[C@H]3[C@@H]4CC[C@H]5C[C@@H](O)CC[C@]5(C)[C@H]4CC(=O)[C@]3(C)[C@H]1[C@@H]2C` [Hecogenin] returned an IC50 of 2.1 µM.

Turning to `O=C(O)c1cccnc1Nc1cccc(C(F)(F)F)c1` [Niflumic acid], the concentration for half-maximal inhibition (IC50) against UGT1A9 came to 0.28 µM.

Regarding `O=c1c(O)c(-c2ccc(O)c(O)c2)oc2cc(O)cc(O)c12` [Quercetin], the concentration for half-maximal inhibition (IC50) on CYP2C8 turned out to be 8.47 µM.

Take `CN(C)C(N)=NC(=N)N` [[14C]Metformin]: the “Increase of probe substrate uptake rate in transporter-expressing cells compared to mock cells” value on OCT1 turned out to be 4.8 fold; on OCT2, 8.0 fold; at MATE1, 18.3 fold; at MATE2K, 4.2 fold.

For `CCc1ccc(CCOc2ccc(CC3SC(=O)NC3=O)cc2)nc1` (stereo not drawn) [pioglitazone], the inhibition constant (Ki) on ASBT is 54.6 µM; in the data set on OAT3 it was 1.02 µM.

As a reminder, the IC50 is the concentration needed to halve the response being measured. In general, Ki refers to a dissociation constant, usually derived from enzyme kinetics or from competition with a known ligand.
